{"source": "patent US20230059009A1", "about": "“INHIBITORS OF LIN28 AND METHODS OF USE THEREOF” (The Regents of the University of California, priority 2019, published 2023)", "key": {"[1]": {"system": "MYC-driven cancers", "assay": "Cell viability and cell counting assays in cancer cells", "format": "cell-based", "conditions": "TNBC, CRPC, lung and colorectal adenocarcinoma cells", "description": "To test whether LN1632 and novel analogs thereof affect cancer cell growth, cell viability and cell counting assays in TNBC (FIG. 14B-D), castration resistant prostate cancer cells (CRPC, FIG. 15A-C) and colorectal cancer cells (CRC, FIG. 15A-C) were performed.\n(§1) To measure cell viability, cell titer glow (CTG, Promega CellTiter-Glo 2.0 Assay) and MTT assays (SigmaAldrich, Cell Proliferation Kit I) were performed. Briefly, cells were serum starved overnight prior to seeding in 96-well plates. Following 24 h incubation, cells were treated with increasing concentrations of JGJ compounds for 96 hr. At assay read-out, CellTiter-Glo reagent was added and luminescence was measured after 10-minutes incubation at room temperature. For the MTT assay, MTT labeling reagent was added and incubated for 4 h. Subsequently, medium was removed and 50 μL DMSO was added to solubilize the crystals, and absorbance was measured at 570 nm. Cell viability was calculated as (Sample-Background)/(Control-Background). Current standard of care drugs, Enzalutamide, Palbociclib and Cetuximab were used as comparative controls."}, "[2]": {"biological_target": "T1, PRPF31 (Homo sapiens, UniProt Q8WWY3)", "T1 sequence (Q8WWY3 1-499)": "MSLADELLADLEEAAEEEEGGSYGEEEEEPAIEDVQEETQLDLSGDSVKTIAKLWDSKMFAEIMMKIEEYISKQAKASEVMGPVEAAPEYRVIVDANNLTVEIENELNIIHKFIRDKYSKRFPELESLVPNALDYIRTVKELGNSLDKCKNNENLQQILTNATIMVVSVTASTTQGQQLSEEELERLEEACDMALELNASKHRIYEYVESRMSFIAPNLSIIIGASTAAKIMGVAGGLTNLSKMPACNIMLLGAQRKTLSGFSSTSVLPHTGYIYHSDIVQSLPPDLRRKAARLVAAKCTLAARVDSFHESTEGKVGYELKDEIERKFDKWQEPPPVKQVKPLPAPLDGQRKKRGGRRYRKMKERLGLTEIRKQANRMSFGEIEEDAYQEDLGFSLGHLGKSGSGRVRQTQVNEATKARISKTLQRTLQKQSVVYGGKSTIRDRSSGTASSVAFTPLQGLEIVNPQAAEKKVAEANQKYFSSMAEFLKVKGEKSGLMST", "assay": "MDA-MB-231 TNBC cell numbers with PRPF31 overexpression or silencing", "format": "cell-based", "set-up": "mGFP (C); host or cells: MDA-MB-231 TNBC cells", "conditions": "100 μM LN1632", "excerpt": "MDA-MB-231 TNBC cells were used to evaluate whether LN1632 targets PRPF31."}, "[3]": {"system": "CD34+ AML pt. #13 cells", "assay": "CFC assay, AML pt #13 CD34+ cells vs healthy CD34+ BM cells", "format": "cell-based, human", "conditions": "AML pt #13 vs healthy donor CD34+ cells; 80-120 μM"}, "[4]": {"biological_target": "T1, PRPF31", "assay": "MS-CETSA and IP-MS target engagement", "format": "binding", "set-up": "endogenous in cells; host or cells: Kasumi-1 cell lysate", "description": "Mass spectrometry cellular thermal shift assay (MS-CETSA, FIG. 12A) as described in (75), and immunoprecipitation using biotinylated LN1632 (FIG. 12B) were performed. […] PRPF31 is recruited to introns where its highly conserved Nop-domain coordinates the U4 snRNA—15.5K protein interaction. Subsequently, PRPF31 stabilizes the U4/U6.U5 tri-snRNP by concomitantly interacting with PRPF6 and induces the transition of the spliceosomal complex to the activated state (78)."}, "[5]": {"system": "Kasumi-1", "assay": "Systemic Kasumi-1 AML xenograft", "format": "in vivo, mice", "conditions": "systemic Kasumi-1 xenograft; for Animal survival: IP 100 mg/kg every other day for 21 d; for Tumor burden (bioluminescence imaging): IP 100 mg/kg every other day, d+26", "description": "Subsequently, the tumor suppressive effect of LN1632 in cancer in vivo was assessed. High LIN28B expressing THP-1 AML cells (2×10^6 cells) were implanted in NSGS mice (cell suspension in matrigel, 3:1) and at d+12 or d+8 (tumor size=50 mm^2) injection of LN1632 IP at 100 mg/kg daily was initiated. […] The effect of LN1632 in a systemic Kasumi-1 xenograft was also assessed. […] The effects of LN1632 to cytarabine chemotherapy (Ara-C) was also compared, as previously described (74). THP-1 AML cells were subcutaneously implanted (1.5×10^6 cells, high LIN28B) in NSGS mice. Daily IP injections with 100 mg/kg LN1632, 60 mg/kg cytarabine chemotherapy (Ara-C), or vehicle was started at +d3 post AML cell implantation and continued until the vehicle group reached maximal allowed tumor size (250 mm^2)."}, "[6]": {"system": "SW620", "assay": "Cell viability, CTG, SW620", "format": "cell-based", "conditions": "SW620 (Colon)", "description": "as §1"}}, "note": "“Also recorded” adds a separate entry of the source."}
{"smiles": "CC(=O)N(C)c1cccc(-c2ccc3nnc(C)n3n2)c1", "note": "[LN1632]", "values": [{"measurement": "Proliferation and apoptosis of cancer cells", "setting": "[1]", "result": "reduced proliferation and induced apoptosis preferentially in MYC-driven cancers"}, {"measurement": "Anti-proliferative / pro-apoptotic effect under PRPF31 overexpression or shRNA silencing", "setting": "[2]", "result": "rescued anti-proliferative effects of LN1632; also recorded: abrogated pro-apoptotic effects of LN1632"}, {"measurement": "Colony formation (CFC)", "setting": "[3]", "result": "affects colony formation of CD34^+ AML pt. #13 cells significantly more than healthy CD34^+BM cells"}, {"measurement": "Interaction partners by MS-CETSA and immunoprecipitation", "setting": "[4]", "result": "interacts with additional RNA-binding proteins, in particular pre-mRNA processing factor 31"}, {"measurement": "Tm shift (MS-CETSA)", "setting": "[4]; Kasumi-1 cell lysate", "result": "induces Tm shift of endogenous PRPF31"}, {"measurement": "IP-MS capture with biotinylated LN1632, competitive elution", "setting": "[4]; n=3", "result": "captures PRPF31"}, {"measurement": "Animal survival", "setting": "[5]; 100 mg/kg", "result": "significantly prolonged animal survival; also recorded: prolongs survival"}, {"measurement": "Animal survival", "setting": "[5]; listed as 1632, 100 mg/kg", "result": "prolongs survival; also recorded: significantly prolonged animal survival"}, {"measurement": "Tumor burden (bioluminescence imaging)", "setting": "[5]; 100 mg/kg", "result": "decreased tumor burden; also recorded: reduces tumor burden"}, {"measurement": "Tumor burden (bioluminescence imaging)", "setting": "[5]; listed as 1632, 100 mg/kg", "result": "reduces tumor burden; also recorded: decreased tumor burden"}, {"measurement": "IC50", "setting": "[6]", "result": 191, "unit": "µM"}]}
